# From patent publication US8299111B2, “Compounds which modulate the CB2 receptor” (Boehringer Ingelheim International GmbH, priority 2006, dated 2012)
# Target: T1, human CB2R (Homo sapiens, UniProt P34972)
# T1 construct: host or cells: CHO cells
# Test: CB2R mediated modulation of cAMP synthesis
# Format: cell-based
# Conditions: found through the use of the above described assays (binding and cAMP); CHO cells expressing human CB2R, forskolin-stimulated cAMP
# Summary of the method: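 CHO cells expressing human CB2R were treated for 30 min at 37 °C with compound in buffer containing 1 mM IBMX, 0.25% BSA and 10 uM forskolin. cAMP was measured after lysis. EC50 is the concentration giving 50% inhibition of forskolin-stimulated cAMP, scaled to the level set by 1 uM CP55940, fitted by four-parameter logistic.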
# T1 sequence (P34972 whole entry): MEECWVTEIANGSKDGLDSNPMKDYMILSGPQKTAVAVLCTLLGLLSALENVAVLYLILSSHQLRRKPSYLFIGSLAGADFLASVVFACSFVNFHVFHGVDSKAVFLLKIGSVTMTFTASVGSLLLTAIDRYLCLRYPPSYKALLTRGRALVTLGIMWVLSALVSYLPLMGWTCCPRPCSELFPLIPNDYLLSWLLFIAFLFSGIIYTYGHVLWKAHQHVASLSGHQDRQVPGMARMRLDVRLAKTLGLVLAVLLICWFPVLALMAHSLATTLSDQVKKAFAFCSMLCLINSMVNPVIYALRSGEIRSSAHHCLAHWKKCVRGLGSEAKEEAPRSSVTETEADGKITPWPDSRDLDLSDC
row,agonistic activity,SMILES
1,agonistic activity,Cn1nc(C(C)(C)C)cc1NC(=O)C(C)(C)S(=O)(=O)c1ccc(Cl)nc1 [N-(5-tert-Butyl-2-methyl-2H-pyrazol-3-yl)-2-(6-chloro-pyridine-3-sulfonyl)-2-methyl-propionamide]
2,agonistic activity,COc1ccc(S(=O)(=O)C(C)(C)C(=O)Nc2cc(C(C)(C)C)nn2C)cn1 [N-(5-tert-Butyl-2-methyl-2H-pyrazol-3-yl)-2-(6-methoxy-pyridine-3-sulfonyl)-2-methyl-propionamide]
3,agonistic activity,Cn1nc(C(C)(C)C)cc1NC(=O)C(C)(C)S(=O)(=O)c1ccc(C(F)(F)F)nc1 [N-(5-tert-Butyl-2-methyl-2H-pyrazol-3-yl)-2-methyl-2-(6-trifluoromethyl-pyridine-3-sulfonyl)-propionamide]
4,agonistic activity,Cc1ccc(S(=O)(=O)C(C)(C)C(=O)Nc2cc(C(C)(C)C)nn2C)cc1 [N-(5-tert-Butyl-2-methyl-2H-pyrazol-3-yl)-2-methyl-2-(toluene-4-sulfonyl)-propionamide]
5,agonistic activity,CC(C)C(C(=O)Nc1cc(C(C)(C)C)nn1C)S(=O)(=O)c1ccc(C(F)(F)F)cc1 (stereo not drawn) [N-(5-tert-Butyl-2-methyl-2H-pyrazol-3-yl)-3-methyl-2-(4-trifluoromethyl-benzenesulfonyl)-butyramide]
6,agonistic activity,CC(C)(C)c1cc(NC(=O)C(C)(C)S(=O)(=O)c2ccccc2F)[nH]n1 [N-(5-tert-Butyl-2H-pyrazol-3-yl)-2-(2-fluoro-benzenesulfonyl)-2-methyl-propionamide]
7,agonistic activity,CC(C)(C)c1cc(NC(=O)C(C)(C)S(=O)(=O)c2ccc(Cl)cc2)[nH]n1 [N-(5-tert-Butyl-2H-pyrazol-3-yl)-2-(4-chloro-benzenesulfonyl)-2-methyl-propionamide]
8,agonistic activity,CC(C)(C)c1cc(NC(=O)C(C)(C)S(=O)(=O)c2ccc(C(F)(F)F)nc2)[nH]n1 [N-(5-tert-Butyl-2H-pyrazol-3-yl)-2-methyl-2-(6-trifluoromethyl-pyridine-3-sulfonyl)-propionamide]
9,agonistic activity,Cc1nc(NC(=O)C(C)(C)S(=O)(=O)c2cccc(F)c2)sc1C(C)(C)C [N-(5-tert-Butyl-4-methyl-thiazol-2-yl)-2-(3-fluoro-benzenesulfonyl)-2-methyl-propionamide]
10,agonistic activity,COc1ccc(S(=O)(=O)C(C)(C)C(=O)Nc2nc(C)c(C(C)(C)C)s2)cc1 [N-(5-tert-Butyl-4-methyl-thiazol-2-yl)-2-(4-methoxy-benzenesulfonyl)-2-methyl-propionamide]
11,agonistic activity,Cc1nc(NC(=O)C(C)(C)S(=O)(=O)c2cccc(C(F)(F)F)c2)sc1C(C)(C)C [N-(5-tert-Butyl-4-methyl-thiazol-2-yl)-2-methyl-2-(3-trifluoromethyl-benzenesulfonyl)-propionamide]
12,agonistic activity,Cc1nc(NC(=O)C(C)(C)S(=O)(=O)c2ccc(C(F)(F)F)nc2)sc1C(C)(C)C [N-(5-tert-Butyl-4-methyl-thiazol-2-yl)-2-methyl-2-(6-trifluoromethyl-pyridine-3-sulfonyl)-propionamide]
13,agonistic activity,Cc1nc(NC(=O)C(C)(C)S(=O)(=O)c2ccc3ccccc3c2)sc1C(C)(C)C [N-(5-tert-Butyl-4-methyl-thiazol-2-yl)-2-methyl-2-(naphthalene-2-sulfonyl)-propionamide]
14,agonistic activity,Cc1ccccc1S(=O)(=O)C(C)(C)C(=O)Nc1nc(C)c(C(C)(C)C)s1 [N-(5-tert-Butyl-4-methyl-thiazol-2-yl)-2-methyl-2-(toluene-2-sulfonyl)-propionamide]
15,agonistic activity,Cc1ccc(S(=O)(=O)C(C)(C)C(=O)Nc2nc(C)c(C(C)(C)C)s2)cc1 [N-(5-tert-Butyl-4-methyl-thiazol-2-yl)-2-methyl-2-(toluene-4-sulfonyl)-propionamide]
16,agonistic activity,Cc1nc(NC(=O)C(C(C)C)S(=O)(=O)c2ccc(C(F)(F)F)cc2)sc1C(C)(C)C (stereo not drawn) [N-(5-tert-Butyl-4-methyl-thiazol-2-yl)-3-methyl-2-(4-trifluoromethyl-benzenesulfonyl)-butyramide]
17,agonistic activity,"CC(C)(C)c1nnc(NC(=O)C(C)(C)S(=O)(=O)c2ccc(Cl)cc2)s1 [N-(5-tert-Butyl-[1,3,4]thiadiazol-2-yl)-2-(4-chloro-benzenesulfonyl)-2-methyl-propionamide]"
18,agonistic activity,"CC1(C)CCc2cc(S(=O)(=O)C(C)(C)C(=O)Nc3cc(C(C)(C)C)on3)ccc2O1 [N-(5-tert-Butyl-isoxazol-3-yl)-2-(2,2-dimethyl-chroman-6-sulfonyl)-2-methyl-propionamide]"
19,agonistic activity,"CC(C)(C)c1cc(NC(=O)C(C)(C)S(=O)(=O)c2ccc(Cl)cc2Cl)no1 [N-(5-tert-Butyl-isoxazol-3-yl)-2-(2,4-dichloro-benzenesulfonyl)-2-methyl-propionamide]"
20,agonistic activity,"CC(C)(C)c1cc(NC(=O)C(C)(C)S(=O)(=O)c2ccc(F)cc2F)no1 [N-(5-tert-Butyl-isoxazol-3-yl)-2-(2,4-difluoro-benzenesulfonyl)-2-methyl-propionamide]"
21,agonistic activity,"CC(C)(C)c1cc(NC(=O)C(C)(C)S(=O)(=O)c2cc(F)ccc2F)no1 [N-(5-tert-Butyl-isoxazol-3-yl)-2-(2,5-difluoro-benzenesulfonyl)-2-methyl-propionamide]"
22,agonistic activity,Cc1ccc(S(=O)(=O)C(C)(C)C(=O)Nc2cc(C(C)(C)C)on2)c(F)c1 [N-(5-tert-Butyl-isoxazol-3-yl)-2-(2-fluoro-4-methyl-benzenesulfonyl)-2-methyl-propionamide]
23,agonistic activity,CC(C)(C)c1cc(NC(=O)C(C)(C)S(=O)(=O)c2ccccc2F)no1 [N-(5-tert-Butyl-isoxazol-3-yl)-2-(2-fluoro-benzenesulfonyl)-2-methyl-propionamide]

row,SMILES,agonistic activity
1,Cc1nc(NC(=O)C(C)(C)S(=O)(=O)c2ccccc2F)sc1C(C)(C)C [N-(5-tert-Butyl-4-methyl-thiazol-2-yl)-2-(2-fluoro-benzenesulfonyl)-2-methyl-propionamide],agonistic activity
2,"Cc1nc(NC(=O)C(C)(C)S(=O)(=O)c2ccc(Cl)c(Cl)c2)sc1C(C)(C)C [N-(5-tert-Butyl-4-methyl-thiazol-2-yl)-2-(3,4-dichloro-benzenesulfonyl)-2-methyl-propionamide]",agonistic activity
3,Cc1nc(NC(=O)C(C)(C)S(=O)(=O)c2ccc(Cl)cc2)sc1C(C)(C)C [N-(5-tert-Butyl-4-methyl-thiazol-2-yl)-2-(4-chloro-benzenesulfonyl)-2-methyl-propionamide],agonistic activity
4,Cc1nc(NC(=O)C(C)(C)S(=O)(=O)c2ccc(C(F)(F)F)cc2)sc1C(C)(C)C [N-(5-tert-Butyl-4-methyl-thiazol-2-yl)-2-methyl-2-(4-trifluoromethyl-benzenesulfonyl)-propionamide],agonistic activity
